Read-outs that look alike come from different tables or passages of the source.
What was measured:
Experiment in all cases: TGFα-shedding assay-based GPCR screening with chimeric Gα subunit proteins
Format in all cases: cell-based
348 GPCRs [1] = biological target: T1, 348 GPCRs (Homo sapiens, UniProt Q8TDV5)
T1 construct: expressed in transfected cells; host or cells: HEK293A
T1 sequence (Q8TDV5 1-335): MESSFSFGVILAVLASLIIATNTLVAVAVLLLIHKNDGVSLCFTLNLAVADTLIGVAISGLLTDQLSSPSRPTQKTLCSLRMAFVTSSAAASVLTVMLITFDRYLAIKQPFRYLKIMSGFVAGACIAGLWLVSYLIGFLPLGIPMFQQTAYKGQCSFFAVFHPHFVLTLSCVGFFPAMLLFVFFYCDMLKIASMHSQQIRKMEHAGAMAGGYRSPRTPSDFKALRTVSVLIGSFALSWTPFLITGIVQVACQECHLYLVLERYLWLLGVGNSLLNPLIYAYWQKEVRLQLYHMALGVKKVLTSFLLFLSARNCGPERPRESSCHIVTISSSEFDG

348 GPCRs [2] = biological target: 348 GPCRs (Homo sapiens, UniProt O43193); details: 10µM, Favipiravir 100μM
348 GPCRs (Homo sapiens, UniProt O43193), sequence (O43193 whole entry): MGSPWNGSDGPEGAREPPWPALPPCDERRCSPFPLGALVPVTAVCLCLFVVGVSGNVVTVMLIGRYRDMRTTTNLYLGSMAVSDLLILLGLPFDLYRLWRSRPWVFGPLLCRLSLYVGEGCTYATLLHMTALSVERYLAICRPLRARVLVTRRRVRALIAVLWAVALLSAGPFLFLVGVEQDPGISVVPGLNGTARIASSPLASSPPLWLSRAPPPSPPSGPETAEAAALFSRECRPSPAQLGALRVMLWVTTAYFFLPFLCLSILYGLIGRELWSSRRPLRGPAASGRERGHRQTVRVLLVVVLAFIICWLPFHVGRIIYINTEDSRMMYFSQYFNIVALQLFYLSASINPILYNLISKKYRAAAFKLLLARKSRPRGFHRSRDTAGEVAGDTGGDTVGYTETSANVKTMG

348 GPCRs [3] = biological target: T2, 348 GPCRs (Homo sapiens, UniProt P46089); details: 10µM, Favipiravir 100μM
T2 construct: expressed in transfected cells; host or cells: HEK293A
T2 sequence (P46089 whole entry): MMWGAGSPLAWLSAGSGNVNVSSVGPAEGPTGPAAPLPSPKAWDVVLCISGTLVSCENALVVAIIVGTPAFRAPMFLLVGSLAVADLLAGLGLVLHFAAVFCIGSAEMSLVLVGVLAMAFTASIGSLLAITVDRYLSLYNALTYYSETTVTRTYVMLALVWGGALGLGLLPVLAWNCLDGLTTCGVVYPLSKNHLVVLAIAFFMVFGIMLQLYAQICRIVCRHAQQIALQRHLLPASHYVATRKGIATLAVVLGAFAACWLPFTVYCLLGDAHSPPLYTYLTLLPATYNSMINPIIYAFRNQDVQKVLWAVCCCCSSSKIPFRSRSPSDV

348 GPCRs [4] = biological target: T3, 348 GPCRs (Homo sapiens, UniProt Q9Y5X5); details: 10µM, Favipiravir 100μM
T3 construct: expressed in transfected cells; host or cells: HEK293A
T3 sequence (Q9Y5X5 whole entry): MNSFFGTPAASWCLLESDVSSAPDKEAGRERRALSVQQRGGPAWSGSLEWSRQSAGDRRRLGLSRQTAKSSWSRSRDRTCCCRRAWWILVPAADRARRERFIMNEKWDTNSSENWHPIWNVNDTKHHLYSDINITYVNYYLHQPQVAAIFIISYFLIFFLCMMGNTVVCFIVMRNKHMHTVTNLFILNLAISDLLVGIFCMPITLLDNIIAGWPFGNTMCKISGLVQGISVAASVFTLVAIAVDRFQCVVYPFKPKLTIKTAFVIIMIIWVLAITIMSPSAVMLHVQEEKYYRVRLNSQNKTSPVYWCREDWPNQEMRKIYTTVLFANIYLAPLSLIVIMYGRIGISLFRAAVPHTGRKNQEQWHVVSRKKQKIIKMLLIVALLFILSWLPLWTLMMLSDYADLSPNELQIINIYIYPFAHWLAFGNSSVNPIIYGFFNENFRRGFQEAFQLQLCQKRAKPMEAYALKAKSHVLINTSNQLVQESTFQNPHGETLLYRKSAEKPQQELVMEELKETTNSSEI

348 GPCRs [5] = biological target: T4, 348 GPCRs (Homo sapiens, UniProt Q8NDV2); details: 10µM, Favipiravir 100μM
T4 construct: expressed in transfected cells; host or cells: HEK293A
T4 sequence (Q8NDV2 whole entry): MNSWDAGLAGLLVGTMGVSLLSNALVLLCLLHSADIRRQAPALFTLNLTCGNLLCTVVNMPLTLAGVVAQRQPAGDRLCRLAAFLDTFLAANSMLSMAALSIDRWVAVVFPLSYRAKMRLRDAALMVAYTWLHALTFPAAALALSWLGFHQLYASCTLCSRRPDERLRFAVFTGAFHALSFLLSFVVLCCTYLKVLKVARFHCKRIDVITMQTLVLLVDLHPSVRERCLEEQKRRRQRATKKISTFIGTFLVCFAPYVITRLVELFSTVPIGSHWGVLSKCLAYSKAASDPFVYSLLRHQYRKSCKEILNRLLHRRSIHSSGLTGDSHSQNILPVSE

348 GPCRs [6] = biological target: T5, 348 GPCRs (Homo sapiens, UniProt Q96P69); details: 10µM, Favipiravir 100μM
T5 construct: expressed in transfected cells; host or cells: HEK293A
T5 sequence (Q96P69 whole entry): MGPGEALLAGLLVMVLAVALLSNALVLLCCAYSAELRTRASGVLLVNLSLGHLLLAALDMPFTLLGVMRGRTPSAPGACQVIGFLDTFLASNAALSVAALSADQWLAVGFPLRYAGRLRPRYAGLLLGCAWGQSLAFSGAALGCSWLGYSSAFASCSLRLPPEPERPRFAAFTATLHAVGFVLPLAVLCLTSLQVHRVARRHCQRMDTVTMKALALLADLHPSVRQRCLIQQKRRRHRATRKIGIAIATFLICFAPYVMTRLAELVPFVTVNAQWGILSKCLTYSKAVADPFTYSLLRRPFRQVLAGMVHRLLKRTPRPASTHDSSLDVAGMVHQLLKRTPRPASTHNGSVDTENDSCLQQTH

348 GPCRs [7] = biological target: T6, 348 GPCRs (Homo sapiens, UniProt O43194)
T6 construct: expressed in transfected cells; host or cells: HEK293A
T6 sequence (O43194 1-453): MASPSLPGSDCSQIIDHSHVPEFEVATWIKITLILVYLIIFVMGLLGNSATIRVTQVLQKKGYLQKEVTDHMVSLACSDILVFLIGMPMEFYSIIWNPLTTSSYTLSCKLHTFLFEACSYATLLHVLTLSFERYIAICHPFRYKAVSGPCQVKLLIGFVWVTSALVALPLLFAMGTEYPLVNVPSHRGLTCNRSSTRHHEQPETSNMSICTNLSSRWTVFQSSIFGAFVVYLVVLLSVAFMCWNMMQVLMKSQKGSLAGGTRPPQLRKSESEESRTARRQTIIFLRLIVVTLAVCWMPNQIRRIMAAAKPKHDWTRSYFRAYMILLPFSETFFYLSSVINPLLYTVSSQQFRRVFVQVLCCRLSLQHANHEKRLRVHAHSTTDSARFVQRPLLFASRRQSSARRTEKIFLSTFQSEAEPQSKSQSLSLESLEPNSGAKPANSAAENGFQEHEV

348 GPCRs [8] = biological target: T7, 348 GPCRs (Homo sapiens, UniProt Q86VZ1)
T7 construct: expressed in transfected cells; host or cells: HEK293A
T7 sequence (Q86VZ1 whole entry): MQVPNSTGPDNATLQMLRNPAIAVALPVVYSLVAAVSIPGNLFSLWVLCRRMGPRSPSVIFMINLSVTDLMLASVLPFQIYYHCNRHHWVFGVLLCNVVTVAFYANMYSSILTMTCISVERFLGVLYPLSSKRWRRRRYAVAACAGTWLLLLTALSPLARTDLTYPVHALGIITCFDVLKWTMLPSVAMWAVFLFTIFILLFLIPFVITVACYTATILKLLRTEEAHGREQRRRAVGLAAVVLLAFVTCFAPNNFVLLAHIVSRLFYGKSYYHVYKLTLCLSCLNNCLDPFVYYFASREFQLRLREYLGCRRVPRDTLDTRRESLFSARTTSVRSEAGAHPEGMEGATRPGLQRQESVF

348 GPCRs [9] = biological target: T8, 348 GPCRs (Homo sapiens, UniProt Q9NYW0); details: 10µM, Favipiravir 100μM
T8 construct: expressed in transfected cells; host or cells: HEK293A
T8 sequence (Q9NYW0 1-307): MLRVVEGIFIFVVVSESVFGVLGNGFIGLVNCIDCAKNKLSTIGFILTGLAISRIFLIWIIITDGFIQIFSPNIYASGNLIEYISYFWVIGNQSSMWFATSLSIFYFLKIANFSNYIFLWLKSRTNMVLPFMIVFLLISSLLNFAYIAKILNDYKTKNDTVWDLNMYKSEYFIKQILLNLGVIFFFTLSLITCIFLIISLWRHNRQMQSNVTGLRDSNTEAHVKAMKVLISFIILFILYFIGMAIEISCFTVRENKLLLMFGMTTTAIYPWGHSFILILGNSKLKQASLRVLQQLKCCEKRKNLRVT

348 GPCRs [10] = biological target: T9, 348 GPCRs (Homo sapiens, UniProt Q9Y653)
T9 construct: expressed in transfected cells; host or cells: HEK293A
T9 sequence (Q9Y653 26-693): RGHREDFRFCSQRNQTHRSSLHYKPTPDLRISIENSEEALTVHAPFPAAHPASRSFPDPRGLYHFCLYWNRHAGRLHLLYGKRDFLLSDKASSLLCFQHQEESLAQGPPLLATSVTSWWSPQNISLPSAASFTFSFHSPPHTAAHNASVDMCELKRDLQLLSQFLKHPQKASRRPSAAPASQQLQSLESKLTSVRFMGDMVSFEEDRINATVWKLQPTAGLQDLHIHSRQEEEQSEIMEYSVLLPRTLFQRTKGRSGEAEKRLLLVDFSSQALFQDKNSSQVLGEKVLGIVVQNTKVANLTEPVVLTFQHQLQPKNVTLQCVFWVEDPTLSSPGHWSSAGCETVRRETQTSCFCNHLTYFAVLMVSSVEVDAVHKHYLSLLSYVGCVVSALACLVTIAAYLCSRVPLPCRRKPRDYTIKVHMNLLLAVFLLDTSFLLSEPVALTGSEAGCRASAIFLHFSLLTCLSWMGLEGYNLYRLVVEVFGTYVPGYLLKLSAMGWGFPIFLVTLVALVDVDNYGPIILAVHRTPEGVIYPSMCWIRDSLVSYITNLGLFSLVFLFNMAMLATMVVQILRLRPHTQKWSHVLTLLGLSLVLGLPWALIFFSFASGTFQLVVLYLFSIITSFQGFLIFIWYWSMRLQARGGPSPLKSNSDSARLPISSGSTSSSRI

348 GPCRs [11] = biological target: T10, 348 GPCRs (Homo sapiens, UniProt P08173)
T10 construct: expressed in transfected cells; host or cells: HEK293A
T10 sequence (P08173 1-479): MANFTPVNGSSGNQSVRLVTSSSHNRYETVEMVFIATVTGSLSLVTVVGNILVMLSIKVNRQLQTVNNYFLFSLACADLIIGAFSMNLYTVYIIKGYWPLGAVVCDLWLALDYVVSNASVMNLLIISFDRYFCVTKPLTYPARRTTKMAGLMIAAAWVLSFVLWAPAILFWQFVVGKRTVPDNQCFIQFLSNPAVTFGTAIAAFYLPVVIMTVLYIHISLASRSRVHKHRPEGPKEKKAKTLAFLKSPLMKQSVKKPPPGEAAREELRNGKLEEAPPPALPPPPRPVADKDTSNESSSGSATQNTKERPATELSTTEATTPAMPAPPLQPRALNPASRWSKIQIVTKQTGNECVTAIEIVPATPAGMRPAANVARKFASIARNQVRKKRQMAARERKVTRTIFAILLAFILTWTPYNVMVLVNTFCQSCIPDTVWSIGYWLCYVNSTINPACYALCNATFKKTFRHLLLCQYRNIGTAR

348 GPCRs [12] = biological target: T11, 348 GPCRs (Homo sapiens, UniProt Q8TDU9); details: RXFP4 (relaxin/insulin-like family peptide receptor 4); 10µM, Favipiravir 100μM
T11 construct: expressed in transfected cells; host or cells: HEK293A
T11 sequence (Q8TDU9 whole entry): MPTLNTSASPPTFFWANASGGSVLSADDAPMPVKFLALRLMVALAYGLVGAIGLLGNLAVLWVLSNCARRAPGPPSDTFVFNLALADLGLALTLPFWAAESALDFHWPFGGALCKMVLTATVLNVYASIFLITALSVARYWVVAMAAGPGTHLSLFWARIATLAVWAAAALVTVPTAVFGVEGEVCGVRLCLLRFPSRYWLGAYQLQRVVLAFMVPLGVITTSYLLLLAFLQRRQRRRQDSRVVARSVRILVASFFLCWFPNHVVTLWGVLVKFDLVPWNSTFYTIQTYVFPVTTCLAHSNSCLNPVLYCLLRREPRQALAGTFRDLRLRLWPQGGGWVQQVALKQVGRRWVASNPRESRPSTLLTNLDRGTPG

348 GPCRs [13] = biological target: T12, 348 GPCRs (Homo sapiens, UniProt Q7Z7M1); details: 10µM, Favipiravir 100μM
T12 construct: expressed in transfected cells; host or cells: HEK293A
T12 sequence (Q7Z7M1 whole entry): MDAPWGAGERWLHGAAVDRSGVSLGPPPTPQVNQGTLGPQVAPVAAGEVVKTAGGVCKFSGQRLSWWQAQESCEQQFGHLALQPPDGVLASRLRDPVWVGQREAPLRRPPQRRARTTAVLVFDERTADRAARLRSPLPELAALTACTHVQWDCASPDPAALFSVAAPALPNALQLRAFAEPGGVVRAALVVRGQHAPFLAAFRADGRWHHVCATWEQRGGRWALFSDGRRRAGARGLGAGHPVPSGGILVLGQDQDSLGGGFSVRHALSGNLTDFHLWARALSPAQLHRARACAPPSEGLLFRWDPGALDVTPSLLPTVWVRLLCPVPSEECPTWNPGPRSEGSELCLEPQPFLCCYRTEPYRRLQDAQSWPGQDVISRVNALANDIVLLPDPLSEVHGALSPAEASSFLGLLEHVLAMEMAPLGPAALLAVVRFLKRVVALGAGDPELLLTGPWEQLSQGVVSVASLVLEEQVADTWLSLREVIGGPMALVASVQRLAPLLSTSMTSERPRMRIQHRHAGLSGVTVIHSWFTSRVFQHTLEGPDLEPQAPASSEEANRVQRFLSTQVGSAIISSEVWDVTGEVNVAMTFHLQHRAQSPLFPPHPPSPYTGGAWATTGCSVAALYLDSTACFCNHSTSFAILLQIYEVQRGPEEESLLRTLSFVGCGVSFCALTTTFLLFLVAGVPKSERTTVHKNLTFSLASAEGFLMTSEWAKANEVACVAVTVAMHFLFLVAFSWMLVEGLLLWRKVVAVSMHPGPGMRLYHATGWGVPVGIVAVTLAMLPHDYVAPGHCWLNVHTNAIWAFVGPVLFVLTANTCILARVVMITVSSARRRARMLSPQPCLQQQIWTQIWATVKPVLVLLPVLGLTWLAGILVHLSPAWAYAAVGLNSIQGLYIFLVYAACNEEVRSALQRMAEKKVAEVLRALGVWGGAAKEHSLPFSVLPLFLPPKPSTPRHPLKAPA

[14] = read-out: % GPCR activation compared to TPA, GPCR GPR119 (G protein-coupled receptor 119)
[15] = read-out: % GPCR activation compared to TPA, MLNR (motilin receptor)
[16] = read-out: % GPCR activation compared to TPA, GPR3 (G protein-coupled receptor 3)
[17] = read-out: % GPCR activation compared to TPA, NPFF2 (neuropeptide FF receptor 2)
[18] = read-out: % GPCR activation compared to TPA, GPR26 (G Protein-Coupled Receptor 26)
[19] = read-out: % GPCR activation compared to TPA, GPR78 (G Protein-Coupled Receptor 78)
[20] = read-out: % GPCR activation compared to TPA, GPCR GPR39 (G Protein-Coupled Receptor 39)
[21] = read-out: % GPCR activation compared to TPA, GPCR P2Y8 (purinergic receptor P2Y, G-protein coupled, 8)
[22] = read-out: % GPCR activation compared to TPA, TAS2R10 (taste receptor, type 2, member 10)
[23] = read-out: % GPCR activation compared to TPA, GPCR GPR56 (G protein-coupled receptor 56)
[24] = read-out: % GPCR activation compared to TPA, GPCR M4 (Muscarinic acetylcholine receptor M4)
[25] = read-out: % GPCR activation compared to TPA, GPR144 (Adhesion G Protein-Coupled Receptor D2 (ADGRD2))
[26] = GPCR GPR119 (G protein-coupled receptor 119), read-out: % GPCR activation compared to TPA
[27] = MLNR (motilin receptor), read-out: % GPCR activation compared to TPA
[28] = GPR3 (G protein-coupled receptor 3), read-out: % GPCR activation compared to TPA
[29] = NPFF2 (neuropeptide FF receptor 2), read-out: % GPCR activation compared to TPA
[30] = GPR26 (G Protein-Coupled Receptor 26), read-out: % GPCR activation compared to TPA
[31] = GPR78 (G Protein-Coupled Receptor 78), read-out: % GPCR activation compared to TPA
[32] = GPCR GPR39 (G Protein-Coupled Receptor 39), read-out: % GPCR activation compared to TPA
[33] = GPCR P2Y8 (purinergic receptor P2Y, G-protein coupled, 8), read-out: % GPCR activation compared to TPA
[34] = TAS2R10 (taste receptor, type 2, member 10), read-out: % GPCR activation compared to TPA
[35] = GPCR GPR56 (G protein-coupled receptor 56), read-out: % GPCR activation compared to TPA
[36] = GPCR M4 (Muscarinic acetylcholine receptor M4), read-out: % GPCR activation compared to TPA
[37] = GPR144 (Adhesion G Protein-Coupled Receptor D2 (ADGRD2)), read-out: % GPCR activation compared to TPA

SMILES | activation at 10 µM (348 GPCRs [1]; [14]) | activation at 100 µM (348 GPCRs [2]; [15]) | activation at 100 µM (348 GPCRs [3]; [16]) | activation at 10 µM (348 GPCRs [4]; [17]) | activation at 100 µM (348 GPCRs [5]; [18]) | activation at 100 µM (348 GPCRs [6]; [19]) | activation at 10 µM (348 GPCRs [7]; [20]) | activation at 10 µM (348 GPCRs [8]; [21]) | activation at 100 µM (348 GPCRs [9]; [22]) | activation at 10 µM (348 GPCRs [10]; [23]) | activation at 10 µM (348 GPCRs [11]; [24]) | % GPCR activation compared to TPA (348 GPCRs [12]) | activation at 100 µM (348 GPCRs [13]; [25]) | activation at 100 µM (348 GPCRs [2]; [27]) | activation at 100 µM (348 GPCRs [3]; [28]) | activation at 10 µM (348 GPCRs [4]; [29]) | activation at 100 µM (348 GPCRs [5]; [30]) | activation at 100 µM (348 GPCRs [6]; [31]) | activation at 100 µM (348 GPCRs [9]; [34]) | activation at 100 µM (348 GPCRs [13]; [37]) | further results
CC(C)OC(=O)[C@H](C)N[P@](=O)(OC[C@H]1O[C@@H](n2ccc(=O)[nH]c2=O)[C@](C)(F)[C@@H]1O)Oc1ccccc1 [sofosbuvir] | -6.04% | -0.32% | -0.512% | -0.549% | 0.171% | 2.01% | -4.93% | -3.86% | -0.149% | 0.191% | -1.57% | -1.565% | 0.00791% | – | – | – | – | – | – | – | –
CC(C)C(=O)OC[C@H]1O[C@@H](n2ccc(NO)nc2=O)[C@H](O)[C@@H]1O [molnupiravir] | – | – | – | – | – | – | – | – | – | – | – | -0.4598% | – | -1.09% | -0.728% | -0.917% | -0.581% | -0.581% | -0.25% | -1.45% | activation at 10 µM (348 GPCRs [1]; [26]): -26.9%; activation at 10 µM (348 GPCRs [7]; [32]): -11.5%; activation at 10 µM (348 GPCRs [8]; [33]): -9.1%; activation at 10 µM (348 GPCRs [10]; [35]): -2.2%; activation at 10 µM (348 GPCRs [11]; [36]): -1.11%
NC(=O)c1nc(F)cnc1O [favipiravir, 6-fluoro-3-hydroxy-2-pyrazinecarboxamide] | – | – | – | – | – | – | – | – | – | – | – | 1.69% | – | -4.07% | 3.58% | -0.818% | -0.29% | -0.429% | 1.23% | -0.934% | activation at 100 µM (348 GPCRs [1]; GPCR GPR119 (G protein-coupled receptor 119), 100μM, read-out: % GPCR activation compared to TPA): 3.67%; activation at 100 µM (348 GPCRs [7]; GPCR GPR39 (G Protein-Coupled Receptor 39), 100μM, read-out: % GPCR activation compared to TPA): -6.36%; activation at 100 µM (348 GPCRs [8]; GPCR P2Y8 (purinergic receptor P2Y, G-protein coupled, 8), 100μM, read-out: % GPCR activation compared to TPA): 1.7%; activation at 100 µM (348 GPCRs [10]; GPCR GPR56 (G protein-coupled receptor 56), 100μM, read-out: % GPCR activation compared to TPA): -0.74%; activation at 100 µM (348 GPCRs [11]; GPCR M4 (Muscarinic acetylcholine receptor M4), 100μM, read-out: % GPCR activation compared to TPA): -6.29%
N#C[C@@]1(c2ccc3c(N)ncnn23)O[C@H](CO)[C@@H](O)[C@H]1O [GS441524] | – | – | – | – | – | – | – | – | – | – | – | -0.3375% | – | -7.84% | 7.48% | -0.904% | -0.116% | 0.894% | 0.66% | -0.695% | activation at 10 µM (348 GPCRs [1]; [26]): 5.33%; activation at 10 µM (348 GPCRs [7]; [32]): -9.02%; activation at 10 µM (348 GPCRs [8]; [33]): 1.71%; activation at 10 µM (348 GPCRs [10]; [35]): -3.73%; activation at 10 µM (348 GPCRs [11]; [36]): -4.09%
CCC(CC)COC(=O)[C@H](C)N[P@](=O)(OC[C@H]1O[C@@](C#N)(c2ccc3c(N)ncnn23)[C@H](O)[C@@H]1O)Oc1ccccc1 [remdesivir] | 7.14% | -3.19% | 9.85% | -0.846% | 0.188% | 2.44% | 2.25% | 6.38% | 1.89% | -0.797% | -2.98% | 0.9967% | 0.938% | – | – | – | – | – | – | – | –

Source: PMC10175918 (Communications Biology, 2023)
